Assays:
MATIN = assay: A. Herbicidal pre-emergence action on harmful plants (Tables A); type: in vivo, Matricaria inodora; settings: visual grading after ca. 3 weeks vs untreated controls, 100% = plants have died off, 0% = as control plants
In short: (§1)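 Greenhouse pre-emergence test: compound applied to the soil surface at 1280 g/ha or below, and herbicidal effect rated visually at ca. 3 weeks on a 0–100% scale against untreated plants.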

ECHCG [1] = assay: B. Herbicidal post-emergence action on harmful plants (Tables B); type: in vivo, Echinochloa crus-galli; settings: application rate 1280 g/ha; Table B2a
In short: (§2)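 Activity was scored visually as % damage (100% = dead, 0% = like untreated) about 3 weeks after treatment. Plants at the one-leaf stage, 2-3 weeks old, were sprayed with WP/EC formulations plus 0.5% additive (600 L/ha water, up to 1280 g/ha). Plants were grown in sandy loam in a greenhouse.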

POAAN [2] = assay: as above; type: in vivo, Poa annua
In short: as §2

AMARE = assay: A. Herbicidal pre-emergence action on harmful plants (Tables A); type: in vivo, Amaranthus retroflexus
In short: as §1

ABUTH = assay: as above; type: in vivo, Abutilon theophrasti; settings: application rate 1280 g/ha; visual grading after ca. 3 weeks vs untreated controls; 100% = plants have died off, 0% = as control plants
Excerpt: Seeds of mono- and dicotyledonous weed plants were sown in plastic pots (double sowings with one species of mono- and one species of dicotyledonous weed plants per pot), in sandy loam, and covered with soil. The compounds according to the invention, formulated in the form of wettable powders (WP) or as emulsifiable concentrates (EC), were applied to the surface of the covering soil as aqueous suspension or emulsion, with the addition of 0.5% of an additive, at an application rate of 6001 of water per hectare (converted). Following treatment, the pots were placed in a greenhouse and kept under optimum growth conditions for the test plants. The visual grading of the damage to the test plants was carried out after ca. 3 weeks in comparison to untreated controls (herbicidal effect in percent (%): 100% effect = plants have died off, 0% effect = as control plants). Tables A1 to A12, below, show the effects of selected compounds of the general formula (I) according to table 1 on various harmful plants and an application rate corresponding to 1280 g/ha or below obtained by the experimental procedure mentioned above. Table A1: pre-emergence activity at 1280g/ha against ABUTH in %

LOLRI [3] = assay: as above; type: in vivo, Lolium rigidum; settings: visual grading after ca. 3 weeks vs untreated controls, 100% = plants have died off, 0% = as control plants
In short: as §1

ECHCG [4] = assay: as above; type: in vivo, Echinochloa crus-galli; settings: visual grading after ca. 3 weeks vs untreated controls, 100% = plants have died off, 0% = as control plants
In short: as §1

SETVI = assay: as above; type: in vivo, Setaria viridis; settings: visual grading after ca. 3 weeks vs untreated controls, 100% = plants have died off, 0% = as control plants
In short: as §1

STEME = assay: as above; type: in vivo, Stellaria media; settings: visual grading after ca. 3 weeks vs untreated controls, 100% = plants have died off, 0% = as control plants
In short: as §1

DIGSA [5] = assay: as above; type: in vivo, Digitaria sanguinalis
In short: as §1

VERPE = assay: as above; type: in vivo, Veronica persica; settings: application rate 1280 g/ha; Table A11
In short: as §1

POAAN [6] = assay: as above; type: in vivo, Poa annua
In short: as §1

ALOMY = assay: as above; type: in vivo, Alopecurus myosuroides
In short: as §1

GLXMA [7] = assay: D. Pre-emergence effects on crop plants (Tables D); type: in vivo, Glycine max; settings: crop plant
Excerpt: (§3) Seeds of mono- and dicotyledonous weed plants and crop plants were sown, in plastic or organic planting pots, in sandy loam and covered with soil. The compounds according to the invention, formulated in the form of wettable powders (WP) or as emulsifiable concentrates (EC), were applied to the surface of the covering soil as aqueous suspension or emulsion, with the addition of 0.5% of an additive, at an application rate of 6001 of water/ha (converted).
(§4) Following treatment, the pots were placed in a greenhouse and kept under optimum growth conditions for the test plants. The visual grading of the damage to the test plants was carried out after ca. 3 weeks in comparison to untreated controls (herbicidal effect in percent (%): 100% effect = plants have died off, 0% effect = as control plants).
(§5) Tables D1 to D5 below show the effects of various compounds of the general formula (I) according to Table 1 on various crop plants and an application rate corresponding to 320 g/ha or below obtained by the experimental procedure mentioned above in Biological Examples, Section C. Table D1a: pre-emergence activity at 320g/ha against ZEAMX in %

ZEAMX = assay: F. Post-emergence effects on crop plants (Tables F); type: in vivo, Zea mays; settings: application rate 80 g/ha, crop plant
Excerpt: (§6) Seeds of mono- and dicotyledonous weed plants and crop plants were sown, in plastic or organic planting pots, in sandy loam, covered with soil and grown in a greenhouse under controlled growth conditions. 2 to 3 weeks after sowing, the test plants were sprayed in the single-leaf stage. The compounds according to the invention, formulated in form of wettable powders (WP) or as emulsifiable concentrates (EC), were sprayed onto the green plant parts as aqueous suspension or emulsion, with the addition of 0.5% of an additive, at an application rate of 6001 of water/ha (converted). The test plants were placed in the greenhouse for ca. 3 weeks under optimum growth conditions, and then the effect of the preparations was assessed visually in comparison with untreated controls (herbicidal effect in percent (%): 100% effect = plants have died off, 0% effect = as control plants). Tables F1 to F5 below show the effects of selected compounds of the general formula (I) according to table 1 on various crop plants and an application rate corresponding to 320 g/ha or below obtained by the experimental procedure mentioned above. Table […]: post-emergence activity at 320g/ha against ZEAMX in %

ECHCG [8] = assay: C. Herbicidal pre-emergence action, weed and crop plants (Tables C); type: in vivo, Echinochloa crus-galli; settings: application rate 320 g/ha; Table C6a
Excerpt: (§7) Seeds of mono- and dicotyledonous weed plants and crop plants were sown, in plastic or organic planting pots, in sandy loam and covered with soil. The compounds according to the invention, formulated in the form of wettable powders (WP) or as emulsifiable concentrates (EC), were applied to the surface of the covering soil as aqueous suspension or emulsion, with the addition of 0.5% of an additive, at an application rate of 6001 of water/ha (converted). Following treatment, the pots were placed in a greenhouse and kept under optimum growth conditions for the test plants. The visual grading of the damage to the test plants was carried out after ca. 3 weeks in comparison to untreated controls (herbicidal effect in percent (%): 100% effect = plants have died off, 0% effect = as control plants). Tables C1 to C12 below show the effects of selected compounds of the general formula (I) according to table 1 on various harmful plants and an application rate corresponding to 320 g/ha or below obtained by the experimental procedure mentioned above. Table C1: pre-emergence activity at 320g/ha against KCHSC in %

DIGSA [9] = assay: as above; type: in vivo, Digitaria sanguinalis
Excerpt: as §7

VIOTR = assay: as above; type: in vivo, Viola tricolor; settings: application rate 320 g/ha; Table C12a
Excerpt: as §7

BRSNW [10] = assay: D. Pre-emergence effects on crop plants (Tables D); type: in vivo, Brassica napus; settings: application rate 80 g/ha, crop plant
Excerpt: as §3, §4, §5

ORYZA [11] = assay: D. Pre-emergence effects on crop plants (Tables D); type: in vivo, Oryza sativa; settings: crop plant; application rate 80 g/ha; Table D3b
Excerpt: as §3, §4, §5

LOLRI [12] = assay: C. Herbicidal pre-emergence action, weed and crop plants (Tables C); type: in vivo, Lolium rigidum; settings: application rate 320 g/ha; Table C7a
Excerpt: as §7

ORYZA [13] = assay: F. Post-emergence effects on crop plants (Tables F); type: in vivo, Oryza sativa; settings: application rate 80 g/ha, crop plant
Excerpt: as §6

BRSNW [14] = assay: as above; type: in vivo, Brassica napus; settings: application rate 80 g/ha, crop plant
Excerpt: as §6

GLXMA [15] = assay: as above; type: in vivo, Glycine max; settings: application rate 320 g/ha, crop plant
Excerpt: as §6

TRZAS = assay: as above; type: in vivo, Triticum aestivum; settings: application rate 80 g/ha, crop plant
Excerpt: as §6

[16] = application rate 1280 g/ha, visual grading after ca. 3 weeks vs untreated controls, 100% = plants have died off, 0% = as control plants
[17] = application rate 80 g/ha, Table A7c
[18] = application rate 320 g/ha, Table A7b

COCc1nn(C)cc1C(=O)N1CCCC1Cc1cc(F)ccc1F (single isomer, unassigned) [Example I-071]
90%: pre-emergence activity against MATIN (MATIN; application rate 320 g/ha) | pre-emergence activity against MATIN (MATIN; application rate 1280 g/ha) | post-emergence activity against ECHCG (ECHCG [1]) | post-emergence activity against POAAN (POAAN [2]; application rate 320 g/ha, Table B7b) | post-emergence activity against POAAN (POAAN [2]; application rate 1280 g/ha, Table B7a) | pre-emergence activity against AMARE (AMARE; application rate 320 g/ha, Table A8b) | pre-emergence activity against AMARE (AMARE; [16]) | pre-emergence activity against ABUTH (ABUTH) | pre-emergence activity against LOLRI (LOLRI [3]; application rate 80 g/ha) | pre-emergence activity against ECHCG (ECHCG [4]; application rate 80 g/ha) | pre-emergence activity against SETVI (SETVI; application rate 80 g/ha) | pre-emergence activity against SETVI (SETVI; application rate 320 g/ha) | pre-emergence activity against SETVI (SETVI; application rate 1280 g/ha) | pre-emergence activity against STEME (STEME; application rate 320 g/ha) | pre-emergence activity against STEME (STEME; application rate 1280 g/ha) | pre-emergence activity against DIGSA (DIGSA [5]; application rate 80 g/ha, Table A12c) | pre-emergence activity against VERPE (VERPE) | pre-emergence activity against ALOMY (ALOMY; application rate 320 g/ha, Table A9b) | pre-emergence activity against ALOMY (ALOMY; application rate 1280 g/ha, Table A9a)
100%: pre-emergence activity against LOLRI (LOLRI [3]; application rate 320 g/ha) | pre-emergence activity against LOLRI (LOLRI [3]; application rate 1280 g/ha) | pre-emergence activity against ECHCG (ECHCG [4]; application rate 320 g/ha) | pre-emergence activity against ECHCG (ECHCG [4]; application rate 1280 g/ha) | pre-emergence activity against DIGSA (DIGSA [5]; application rate 320 g/ha, Table A12b) | pre-emergence activity against DIGSA (DIGSA [5]; application rate 1280 g/ha, Table A12a) | pre-emergence activity against POAAN (POAAN [6]; [17]) | pre-emergence activity against POAAN (POAAN [6]; [18]) | pre-emergence activity against POAAN (POAAN [6]; [16])

COCc1nn(C)cc1C(=O)N1CCCC1Cc1cc(F)ccc1F (racemic) [Example I-001]
0%: pre-emergence activity against GLXMA (GLXMA [7]; application rate 80 g/ha, Table D4b) | post-emergence activity against ZEAMX in % (ZEAMX) | pre-emergence activity against BRSNW in % (BRSNW [10]) | post-emergence activity against ORYZA in % (ORYZA [13])
100%: pre-emergence activity against DIGSA (DIGSA [9]; application rate 320 g/ha, Table C5a) | pre-emergence activity against LOLRI (LOLRI [3]; application rate 1280 g/ha) | pre-emergence activity against ECHCG (ECHCG [4]; application rate 320 g/ha) | pre-emergence activity against ECHCG (ECHCG [4]; application rate 1280 g/ha) | pre-emergence activity against SETVI (SETVI; application rate 1280 g/ha) | pre-emergence activity against POAAN (POAAN [6]; [17]) | pre-emergence activity against POAAN (POAAN [6]; [18]) | pre-emergence activity against POAAN (POAAN [6]; [16])
80%: pre-emergence activity against VIOTR (VIOTR) | pre-emergence activity against LOLRI (LOLRI [12])
90%: pre-emergence activity against MATIN (MATIN; application rate 1280 g/ha) | pre-emergence activity against ECHCG (ECHCG [8]) | pre-emergence activity against DIGSA (DIGSA [9]; application rate 80 g/ha, Table C5b) | pre-emergence activity against SETVI (SETVI; application rate 320 g/ha) | pre-emergence activity against STEME (STEME; application rate 320 g/ha) | pre-emergence activity against STEME (STEME; application rate 1280 g/ha)
10%: post-emergence activity against BRSNW in % (BRSNW [14]) | post-emergence activity against TRZAS in % (TRZAS)
20%: pre-emergence activity against GLXMA (GLXMA [7]; application rate 320 g/ha, Table D4a) | pre-emergence activity against ORYZA (ORYZA [11]) | post-emergence activity against GLXMA in % (GLXMA [15])

From patent publication EP4417602A1, “SUBSTITUTED PYRAZOLE CARBOXAMIDES, SALTS THEREOF AND THEIR USE AS HERBICIDALLY ACTIVE SUBSTANCES” (Bayer AG, priority 2023, dated 2024)
